Data from patent publication US20210038515A1 (Azurity Pharmaceuticals, Inc., priority 2014, published 2021).

Tested on: Clostridium difficile
Test: Agar dilution MIC of vancomycin preparations (Sigma, Cutis), diluent, Na benzoate and Na citrate
Format: cell-based
Settings: for MIC, AV (average): average of triplicate; for MIC, VAN-1: replicate 1; for MIC, VAN-2: replicate 2; for MIC, VAN-3: replicate 3
Procedure: Introduction: The purpose of the study was to compare the MICs obtained with the formulation of vancomycin HCL of the invention (Cutis) to formulations obtained using a vancomycin HCL reference standard powder obtained from Sigma. The Example also involves the analysis of a solution or diluent to determine if it has antimicrobial activity at the concentrations present in the agar dilution test.
The C. difficile were tested by agar dilution according to the procedures in the Clinical and Laboratory Standards Institute. 2012. Methods for antimicrobial susceptibility testing of anaerobic bacteria; approved standard-seventh edition.
Other anaerobic organisms included clinical isolates of Bifidobacterium adolescentis and Bacteroides fragilis. Clostridium difficile ATCC 700057 was included as a quality control strain.
The C. difficile isolates were recovered from patients with CDI during the past two years and stored at −70° C. in 20% skim milk. Ribotyping was performed by another reference laboratory. The strains were taken from the freezer and subcultured at least twice to ensure purity and good growth.
On the day of testing, they were suspended in Brucella broth to the turbidity of the 0.5 McFarland standard for testing.
Stock solution of the Sigma vancomycin was prepared in water and stored at −70° C. On the day of testing, it was thawed and further diluted in water to obtain the desired range of 16-0.125 μg/ml. The Cutis vancomycin (25 mg/ml) was reconstituted on the day of testing and further diluted for a final range of 16-0.125 μg/ml in the test. The antimicrobials were added to molten Brucella agar supplemented with vitamin K and hemin to prepare the plates. Drug-free growth controls were included for testing before and after each set of plates. All testing was done in triplicate.
The organisms were pipetted into the wells of the Steers replicator head and applied to the plates with the multi-pronged replicator. The final concentration of organisms was ˜10^5 CFU/spot.
The plates were incubated in the anaerobic chamber incubator for 44 h and examined for growth.
The Cutis diluent comprises: water, about 0.12% (w/v) citric acid (anhydrous), 0.2% (w/v) sucralose, about 0.05% (w/v) artificial grape flavor, 0.1% (w/v) sodium benzoate, about 0.0002% (w/v) D&C Yellow No. 10 and about 0.000038% (w/v) FD&C Red No. 40.

With `CN[C@H](CC(C)C)C(=O)N[C@H]1C(=O)N[C@@H](CC(N)=O)C(=O)N[C@H]2C(=O)N[C@H]3C(=O)N[C@H](C(=O)N[C@H](C(=O)O)c4cc(O)cc(O)c4-c4cc3ccc4O)[C@H](O)c3ccc(c(Cl)c3)Oc3cc2cc(c3O[C@@H]2O[C@H](CO)[C@@H](O)[C@H](O)[C@H]2O[C@H]2C[C@](C)(N)[C@H](O)[C@H](C)O2)Oc2ccc(cc2Cl)[C@H]1O.Cl` [Sigma] the “MIC, AV (average)” value (RMA 24690, ribotype 027) was 5.3 µg/mL, the “MIC, VAN-1” value (RMA 24690, ribotype 027) was 4 µg/mL and the “MIC, VAN-2” value (RMA 24690, ribotype 027) was 4 µg/mL. The “MIC, VAN-3” value (RMA 24690, ribotype 027) was 8 µg/mL, the “MIC, AV (average)” value (RMA 26381, ribotype 017) was 1.7 µg/mL and the “MIC, VAN-1” value (RMA 26381, ribotype 017) was 2 µg/mL. The “MIC, VAN-2” value (RMA 26381, ribotype 017) was 2 µg/mL, the “MIC, VAN-3” value (RMA 26381, ribotype 017) was 1 µg/mL and the “MIC, AV (average)” value (RMA 26442, ribotype 017) was 1 µg/mL. The “MIC, VAN-1” value (RMA 26442, ribotype 017) was 1 µg/mL, the “MIC, VAN-2” value (RMA 26442, ribotype 017) was 1 µg/mL and the “MIC, VAN-3” value (RMA 26442, ribotype 017) was 1 µg/mL. The “MIC, AV (average)” value (RMA 26443, ribotype 027) was 4 µg/mL, the “MIC, VAN-1” value (RMA 26443, ribotype 027) was 4 µg/mL and the “MIC, VAN-2” value (RMA 26443, ribotype 027) was 4 µg/mL. For the same molecule, the “MIC, VAN-3” value (RMA 26443, ribotype 027) was 4 µg/mL, the “MIC, AV (average)” value (RMA 26445, ribotype 017) was 2 µg/mL and the “MIC, VAN-1” value (RMA 26445, ribotype 017) was 2 µg/mL. The “MIC, VAN-2” value (RMA 26445, ribotype 017) was 2 µg/mL, the “MIC, VAN-3” value (RMA 26445, ribotype 017) was 2 µg/mL and the “MIC, AV (average)” value (RMA 26446, ribotype 027) was 1 µg/mL. The “MIC, VAN-1” value (RMA 26446, ribotype 027) was 1 µg/mL, the “MIC, VAN-2” value (RMA 26446, ribotype 027) was 1 µg/mL and the “MIC, VAN-3” value (RMA 26446, ribotype 027) was 1 µg/mL. The “MIC, AV (average)” value (RMA 26447, ribotype 001) was 2 µg/mL, the “MIC, VAN-1” value (RMA 26447, ribotype 001) was 2 µg/mL and the “MIC, VAN-2” value (RMA 26447, ribotype 001) was 2 µg/mL. For the same molecule, the “MIC, VAN-3” value (RMA 26447, ribotype 001) was 2 µg/mL, the “MIC, AV (average)” value (RMA 26451, ribotype 001) was 1.7 µg/mL and the “MIC, VAN-1” value (RMA 26451, ribotype 001) was 2 µg/mL. The “MIC, VAN-2” value (RMA 26451, ribotype 001) was 2 µg/mL, the “MIC, VAN-3” value (RMA 26451, ribotype 001) was 1 µg/mL and the “MIC, AV (average)” value (RMA 26455, ribotype 027) was 1 µg/mL. For the same molecule, the “MIC, VAN-1” value (RMA 26455, ribotype 027) was 1 µg/mL, the “MIC, VAN-2” value (RMA 26455, ribotype 027) was 1 µg/mL and the “MIC, VAN-3” value (RMA 26455, ribotype 027) was 1 µg/mL. The “MIC, AV (average)” value (RMA 26457, ribotype 027) was 1 µg/mL, the “MIC, VAN-1” value (RMA 26457, ribotype 027) was 1 µg/mL and the “MIC, VAN-2” value (RMA 26457, ribotype 027) was 1 µg/mL. For the same molecule, the “MIC, VAN-3” value (RMA 26457, ribotype 027) was 1 µg/mL, the “MIC, AV (average)” value (RMA 26461, ribotype 106) was 1.3 µg/mL and the “MIC, VAN-1” value (RMA 26461, ribotype 106) was 1 µg/mL. The “MIC, VAN-2” value (RMA 26461, ribotype 106) was 2 µg/mL, the “MIC, VAN-3” value (RMA 26461, ribotype 106) was 1 µg/mL and the “MIC, AV (average)” value (RMA 26463, ribotype 002) was 1.3 µg/mL. For the same molecule, the “MIC, VAN-1” value (RMA 26463, ribotype 002) was 1 µg/mL, the “MIC, VAN-2” value (RMA 26463, ribotype 002) was 2 µg/mL and the “MIC, VAN-3” value (RMA 26463, ribotype 002) was 1 µg/mL. For the same molecule, the “MIC, AV (average)” value (RMA 26466, ribotype 020) was 1.7 µg/mL, the “MIC, VAN-1” value (RMA 26466, ribotype 020) was 2 µg/mL and the “MIC, VAN-2” value (RMA 26466, ribotype 020) was 2 µg/mL. For the same molecule, the “MIC, VAN-3” value (RMA 26466, ribotype 020) was 1 µg/mL, the “MIC, AV (average)” value (RMA 26467, ribotype 002) was 1.3 µg/mL and the “MIC, VAN-1” value (RMA 26467, ribotype 002) was 1 µg/mL. The “MIC, VAN-2” value (RMA 26467, ribotype 002) was 2 µg/mL, the “MIC, VAN-3” value (RMA 26467, ribotype 002) was 1 µg/mL and the “MIC, AV (average)” value (RMA 26471, ribotype 001) was 2 µg/mL. The “MIC, VAN-1” value (RMA 26471, ribotype 001) was 2 µg/mL, the “MIC, VAN-2” value (RMA 26471, ribotype 001) was 2 µg/mL and the “MIC, VAN-3” value (RMA 26471, ribotype 001) was 2 µg/mL. For the same molecule, the “MIC, AV (average)” value (RMA 26472, ribotype 014) was 1 µg/mL, the “MIC, VAN-1” value (RMA 26472, ribotype 014) was 1 µg/mL and the “MIC, VAN-2” value (RMA 26472, ribotype 014) was 1 µg/mL. The “MIC, VAN-3” value (RMA 26472, ribotype 014) was 1 µg/mL, the “MIC, AV (average)” value (RMA 26480, ribotype 106) was 1 µg/mL and the “MIC, VAN-1” value (RMA 26480, ribotype 106) was 1 µg/mL. The “MIC, VAN-2” value (RMA 26480, ribotype 106) was 1 µg/mL, the “MIC, VAN-3” value (RMA 26480, ribotype 106) was 1 µg/mL and the “MIC, AV (average)” value (RMA 26484, ribotype 106) was 1 µg/mL. For the same molecule, the “MIC, VAN-1” value (RMA 26484, ribotype 106) was 1 µg/mL, the “MIC, VAN-2” value (RMA 26484, ribotype 106) was 1 µg/mL and the “MIC, VAN-3” value (RMA 26484, ribotype 106) was 1 µg/mL. For the same molecule, the “MIC, AV (average)” value (RMA 26485, ribotype 078) was 1.3 µg/mL, the “MIC, VAN-1” value (RMA 26485, ribotype 078) was 2 µg/mL and the “MIC, VAN-2” value (RMA 26485, ribotype 078) was 1 µg/mL. The “MIC, VAN-3” value (RMA 26485, ribotype 078) was 1 µg/mL, the “MIC, AV (average)” value (RMA 26489, ribotype 176) was 1 µg/mL and the “MIC, VAN-1” value (RMA 26489, ribotype 176) was 1 µg/mL. The “MIC, VAN-2” value (RMA 26489, ribotype 176) was 1 µg/mL, the “MIC, VAN-3” value (RMA 26489, ribotype 176) was 1 µg/mL and the “MIC, AV (average)” value (RMA 26494, ribotype 126) was 1.3 µg/mL. The “MIC, VAN-1” value (RMA 26494, ribotype 126) was 1 µg/mL, the “MIC, VAN-2” value (RMA 26494, ribotype 126) was 2 µg/mL and the “MIC, VAN-3” value (RMA 26494, ribotype 126) was 1 µg/mL. The “MIC, AV (average)” value (RMA 26500, ribotype 014) was 1 µg/mL, the “MIC, VAN-1” value (RMA 26500, ribotype 014) was 1 µg/mL and the “MIC, VAN-2” value (RMA 26500, ribotype 014) was 1 µg/mL. For the same molecule, the “MIC, VAN-3” value (RMA 26500, ribotype 014) was 1 µg/mL, the “MIC, AV (average)” value (RMA 26503, ribotype 014) was 1 µg/mL and the “MIC, VAN-1” value (RMA 26503, ribotype 014) was 1 µg/mL. For the same molecule, the “MIC, VAN-2” value (RMA 26503, ribotype 014) was 1 µg/mL, the “MIC, VAN-3” value (RMA 26503, ribotype 014) was 1 µg/mL and the “MIC, AV (average)” value (RMA 26543, ribotype 078) was 1 µg/mL. The “MIC, VAN-1” value (RMA 26543, ribotype 078) was 1 µg/mL, the “MIC, VAN-2” value (RMA 26543, ribotype 078) was 1 µg/mL and the “MIC, VAN-3” value (RMA 26543, ribotype 078) was 1 µg/mL. The “MIC, AV (average)” value (RMA 26544, ribotype 078) was 2 µg/mL, the “MIC, VAN-1” value (RMA 26544, ribotype 078) was 2 µg/mL and the “MIC, VAN-2” value (RMA 26544, ribotype 078) was 2 µg/mL. The “MIC, VAN-3” value (RMA 26544, ribotype 078) was 2 µg/mL, the “MIC, AV (average)” value (RMA 26563, ribotype 018) was 1 µg/mL and the “MIC, VAN-1” value (RMA 26563, ribotype 018) was 1 µg/mL. For the same molecule, the “MIC, VAN-2” value (RMA 26563, ribotype 018) was 1 µg/mL, the “MIC, VAN-3” value (RMA 26563, ribotype 018) was 1 µg/mL and the “MIC, AV (average)” value (RMA 26572, ribotype 017) was 1.7 µg/mL. The “MIC, VAN-1” value (RMA 26572, ribotype 017) was 2 µg/mL, the “MIC, VAN-2” value (RMA 26572, ribotype 017) was 2 µg/mL and the “MIC, VAN-3” value (RMA 26572, ribotype 017) was 1 µg/mL.
